Patent US12365687B2 (Hoffmann-La Roche Inc., priority 2021, dated 2025)

Columns and labels:
[1] = target: human GABAA α2β2γ1 receptor (Homo sapiens (Human), UniProt P47869+Q8N1C3); assay: Radioligand binding assay for γ1-containing GABAA subtypes, [3H]RO7239181 competition (α2β2γ1)
[2] = target: α2β2γ1 GABAA receptor subtype (Homo sapiens (Human), UniProt P47869+Q8N1C3); assay: Two-electrode voltage clamp electrophysiology in Xenopus oocytes expressing GABAA receptors (modulation of GABA EC20 current); type: cell-based; conditions: for Efficacy (GABA)%: % modulation of GABA EC20 = 100*(Fold increase-1), α2β2γ1 oocytes, compound at approx. 30-fold Ki; for Fold increase h-GABA-A α2β2γ1 oocyte @ 30-fold Ki: Xenopus oocytes expressing α2β2γ1, compound at approx. 30-fold its Ki α2β2γ1, GABA EC20 current
Method in brief: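 Each concentration was tested on ≥3 oocytes held at −80 mV at room temperature, recorded 3-5 days post-injection. A control and a test response to EC20 GABA (1.5 min each) were superimposed and their point-by-point ratio taken. Peak ratio reported as % modulation of GABA EC20 = 100×(fold increase−1).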

[3] = target: human GABAA α5β2γ1 receptor (Homo sapiens (Human), UniProt P31644+Q8N1C3); assay: Radioligand binding assay for γ1-containing GABAA subtypes, [3H]RO7239181 competition (α5β2γ1)
[4] = target: human GABAA α1β3γ2 receptor (Homo sapiens (Human), UniProt P14867+P18507); assay: Radioligand binding assay for γ2-containing GABAA subtypes, [3H]Flumazenil competition (α1β3γ2); conditions: for γ2/γ1 Selectivity Ratio: Ki α1β3γ2 (nM)/Ki α2β2γ1 (nM); for LogSel: Log[Ki α1β3γ2 (nM)/Ki α2β2γ1 (nM)]
[5] = Ki h-GABAA α2β2γ1, [3H]RO7239181 competition binding, human GABAA α2β2γ1
[6] = Ki h-GABAA α2β2γ1, displacement of [3H]RO7239181, membranes of HEK293F cells expressing human receptors, means of two determinations

SMILES | Ki [1, 5] [nM] | Ki [1, 6] [nM] | Efficacy (GABA)% [2] [%] | Fold increase h-GABA-A α2β2γ1 oocyte @ 30-fold Ki [2] | Ki [3] [nM] | Ki [4] [nM] | γ2/γ1 Selectivity Ratio [4] | LogSel [4]
CC1CN(C(=O)c2cn3c(n2)[C@H](C)N=C(c2ncccc2F)c2c-3ccc(C(F)(F)F)c2Cl)C1 [Example 163, (3-methylazetidin-1-yl)-[(4S)-7-chloro-6-(3-fluoro-2-pyridyl)-4-methyl-8-(trifluoromethyl)-4H-imidazo[1,2-a][1,4]benzodiazepin-2-yl]methanone] | 87.1 | 101 | 136 | 2.36 | 20.6 | 13500 | 134.0 | 2.13
C[C@@H]1N=C(c2c(F)cccc2F)c2c(ccc(Cl)c2Cl)-n2nc(C(=O)NCC(F)F)nc21 [Example 59, (4S)-7,8-dichloro-N-(2,2-difluoroethyl)-6-(2,6-difluorophenyl)-4-methyl-4H-[1,2,4]triazolo[1,5-a][1,4]benzodiazepine-2-carboxamide] | 7 | 7 | 74 | 1.74 | 1.26 | 640 | 90.9 | 1.96
COC1CN(C(=O)Nc2nc3n(n2)-c2ccc(C(F)(F)F)c(Cl)c2C(c2c(F)cccc2F)=N[C@H]3C)C1 [Example 127, N-[(4S)-7-chloro-6-(2,6-difluorophenyl)-4-methyl-8-(trifluoromethyl)-4H-[1,2,4]triazolo[1,5-a][1,4]benzodiazepin-2-yl]-3-methoxy-azetidine-1-carboxamide] | 49.4 | 49.4 | 112 | 2.12 | 5.46 | 4760 | 96.5 | 1.98
C[C@@H]1N=C(c2c(F)cccc2F)c2c(ccc(Cl)c2Cl)-n2nc(C3CC3)nc21 [Example 49, (4S)-7,8-dichloro-2-cyclopropyl-6-(2,6-difluorophenyl)-4-methyl-4H-[1,2,4]triazolo[1,5-a][1,4]benzodiazepine] | 15.7 | 15.7 | 75 | 1.75 | 1.41 | 619 | 39.5 | 1.60
COCc1nc2n(n1)-c1ccc(Cl)c(Cl)c1C(c1c(F)cccc1F)=N[C@H]2C [Example 27, (4S)-7,8-dichloro-6-(2,6-difluorophenyl)-2-(methoxymethyl)-4-methyl-4H-[1,2,4]triazolo[1,5-a][1,4]benzodiazepine] | 11.4 | 11.4 | 69 | 1.69 | 1.08 | 707 | 61.8 | 1.79
CCOC1CN(C(=O)c2nc3n(n2)-c2ccc(Cl)c(Cl)c2C(c2ncccc2F)=N[C@H]3C)C1 [Example 86, (3-ethoxyazetidin-1-yl)-[(4S)-7,8-dichloro-6-(3-fluoro-2-pyridyl)-4-methyl-4H-[1,2,4]triazolo[1,5-a][1,4]benzodiazepin-2-yl]methanone] | 37 | 37 | 97 | 1.97 | 6.13 | 2050 | 55.4 | 1.74
C[C@@H]1N=C(c2c(F)cccc2F)c2c(ccc(Cl)c2Cl)-n2nc(C(=O)N3CC4(CCO4)C3)nc21 [Example 94, [(4S)-7,8-dichloro-6-(2,6-difluorophenyl)-4-methyl-4H-[1,2,4]triazolo[1,5-a][1,4]benzodiazepin-2-yl]-(1-oxa-6-azaspiro[3.3]heptan-6-yl)methanone] | 3.9 | 3.89 | 76 | 1.76 | 1.43 | 586 | 150.7 | 2.18
C[C@@H]1N=C(c2c(F)cccc2F)c2c(ccc(C(F)(F)F)c2Cl)-n2nc(NC(=O)N3CCS(=O)(=O)CC3)nc21 [Example 131, N-[(4S)-7-chloro-6-(2,6-difluorophenyl)-4-methyl-8-(trifluoromethyl)-4H-[1,2,4]triazolo[1,5-a][1,4]benzodiazepin-2-yl]-1,1-dioxo-1,4-thiazinane-4-carboxamide] | 13.8 | 13.8 | 104 | 2.04 | 3.38 | 2430 | 176.5 | 2.25
COC1CN(C(=O)c2cn3c(n2)[C@H](C)N=C(c2ncccc2F)c2c-3ccc(C(F)(F)F)c2Cl)C1 [Example 145, [(4S)-7-chloro-6-(3-fluoro-2-pyridyl)-4-methyl-8-(trifluoromethyl)-4H-imidazo[1,2-a][1,4]benzodiazepin-2-yl]-(3-methoxyazetidin-1-yl)methanone] | 93.1 | 93.1 | 168 | 2.68 | 18.4 | 13200 | 141.7 | 2.15
C[C@@H]1N=C(c2c(F)cccc2F)c2c(ccc(Cl)c2Cl)-n2nc(C(=O)N3CC[C@H](F)C3)nc21 [Example 80, [(4S)-7,8-dichloro-6-(2,6-difluorophenyl)-4-methyl-4H-[1,2,4]triazolo[1,5-a][1,4]benzodiazepin-2-yl]-[(3S)-3-fluoropyrrolidin-1-yl]methanone] | 14.3 | 14.3 | 89 | 1.89 | 1.9 | 979 | 68.5 | 1.84
C[C@@H]1N=C(c2c(F)cccc2F)c2c(ccc(Cl)c2Cl)-n2nc(OC3COC3)nc21 [Example 92, (4S)-7,8-dichloro-6-(2,6-difluorophenyl)-4-methyl-2-(oxetan-3-yloxy)-4H-[1,2,4]triazolo[1,5-a][1,4]benzodiazepine] | 44.9 | 44.9 | 44 | 1.44 | 4.45 | 3280 | 73.0 | 1.86
COCc1cn2c(n1)CN=C(c1c(F)cccc1F)c1c-2ccc(Cl)c1Cl [Example 5, 7,8-dichloro-6-(2,6-difluorophenyl)-2-(methoxymethyl)-4H-benzo[f]imidazo[1,2-a][1,4]diazepine] | 9.6 | 9.6 | 78 | 1.78 | 1.2 | 307 | 31.9 | 1.50
C[C@@H]1N=C(c2c(F)cccc2F)c2c(ccc(Cl)c2Cl)-n2nc(N3CCS(=O)(=O)CC3)nc21 [Example 52, 4-[(4S)-7,8-dichloro-6-(2,6-difluorophenyl)-4-methyl-4H-[1,2,4]triazolo[1,5-a][1,4]benzodiazepin-2-yl]-1,4-thiazinane 1,1-dioxide] | 12.4 | 12.4 | 41 | 1.41 | 1.26 | 578 | 46.6 | 1.67
